Results from ChEMBL document CHEMBL1944528, “Design, synthesis and CoMFA studies of N1-amino acid substituted 2,4,5-triphenyl imidazoline derivatives as p53-MDM2 binding inhibitors” (Bioorg Med Chem, 2012).
pIC50: −log10 of the molar value.

What was measured:
A549 = test: Antiproliferative activity against human A549 cells after 72 hrs by MTT assay; format: functional, cell-based; details: for pIC50: Homo sapiens, A549, 72 h, read-out: IC50; for IC50: a549
PC-3 = test: Antiproliferative activity against human PC3 cells after 72 hrs by MTT assay; format: functional, cell-based; details: for pIC50: Homo sapiens, PC-3, 72 h, read-out: IC50; for IC50: pc-3
HL-60 = test: Antiproliferative activity against human HL60 cells after 72 hrs by MTT assay; format: functional, cell-based; details: for pIC50: Homo sapiens, HL-60, 72 h, read-out: IC50; for IC50: hl-60
SW-620 = test: Antiproliferative activity against human SW620 cells after 72 hrs by MTT assay; format: functional, cell-based; details: for pIC50: Homo sapiens, SW-620, 72 h, read-out: IC50; for IC50: sw-620
[1] = biological target: Tumour suppressor p53/oncoprotein Mdm2 (Homo sapiens, UniProt Q00987); test: Competitive inhibition of MDM2/P53 interaction after 1 hr by fluorescence polarization assay; format: protein assay; details: for pIC50: read-out: IC50
Sequence of Tumour suppressor p53/oncoprotein Mdm2 (P04637 whole entry): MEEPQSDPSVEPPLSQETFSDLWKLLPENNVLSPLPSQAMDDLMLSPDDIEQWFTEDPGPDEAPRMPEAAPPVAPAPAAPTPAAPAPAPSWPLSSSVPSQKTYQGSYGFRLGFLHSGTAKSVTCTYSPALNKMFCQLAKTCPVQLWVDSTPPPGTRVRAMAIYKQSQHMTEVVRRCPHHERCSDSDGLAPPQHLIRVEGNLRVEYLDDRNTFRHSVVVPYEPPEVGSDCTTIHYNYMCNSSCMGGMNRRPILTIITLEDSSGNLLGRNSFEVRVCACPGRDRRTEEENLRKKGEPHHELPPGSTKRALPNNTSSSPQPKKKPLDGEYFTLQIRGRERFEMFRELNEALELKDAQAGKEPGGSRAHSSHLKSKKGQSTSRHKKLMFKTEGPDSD
Sequence of Tumour suppressor p53/oncoprotein Mdm2 (Q00987 whole entry): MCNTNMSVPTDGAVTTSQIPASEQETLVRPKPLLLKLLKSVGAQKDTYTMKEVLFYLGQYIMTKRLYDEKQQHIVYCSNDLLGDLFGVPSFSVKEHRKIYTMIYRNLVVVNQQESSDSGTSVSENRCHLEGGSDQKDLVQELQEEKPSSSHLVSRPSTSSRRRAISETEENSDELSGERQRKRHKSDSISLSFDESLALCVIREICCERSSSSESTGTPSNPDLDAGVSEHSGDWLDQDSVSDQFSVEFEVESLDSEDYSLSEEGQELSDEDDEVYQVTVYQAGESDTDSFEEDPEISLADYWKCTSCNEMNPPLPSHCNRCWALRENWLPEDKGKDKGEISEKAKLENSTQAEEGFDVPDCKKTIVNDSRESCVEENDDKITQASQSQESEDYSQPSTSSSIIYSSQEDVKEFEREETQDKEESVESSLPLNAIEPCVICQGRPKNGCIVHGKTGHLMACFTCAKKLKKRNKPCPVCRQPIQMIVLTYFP

HCT-116 = test: Antiproliferative activity against human HCT116 cells after 72 hrs by MTT assay; format: functional, cell-based; details: for pIC50: Homo sapiens, HCT-116, 72 h, read-out: IC50; for IC50: hct-116
[2] = biological target: Tumour suppressor p53/oncoprotein Mdm2 (Homo sapiens) (UniProt P04637+Q00987); test: Ratio of nutlin-1 IC50 to compound IC50 for MDM2 expressed in Escherichia coli BL-21 and P53 binding interaction after 1 hr by fluorescence polarization competitive binding assay
Sequence of Tumour suppressor p53/oncoprotein Mdm2 (Homo sapiens) (P04637 whole entry, looked up): as the sequence (P04637 whole entry) above
Sequence of Tumour suppressor p53/oncoprotein Mdm2 (Homo sapiens) (Q00987 whole entry, looked up): as the sequence (Q00987 whole entry) above

SMILES | pIC50 (A549) | pIC50 (PC-3) | pIC50 (HL-60) | pIC50 (SW-620) | pIC50 [1] | pIC50 (HCT-116) | IC50 ([1]; read-out: pIC50 (converted)) | IC50 (A549) | IC50 (PC-3) | IC50 (HL-60) | IC50 (SW-620) | IC50 (HCT-116) | Ratio IC50 [2]
CCOC(=O)CCCNC(=O)N1C(c2ccc(OC)cc2OC(C)C)=N[C@H](c2ccc(Cl)cc2)[C@@H]1c1ccc(Cl)cc1 | 5.49 | 5.21 | 5.24 | 5.10 | 5.78 | 5.18 |  |  |  |  |  |  | 
CCOC(=O)CCNC(=O)N1C(c2ccc(OC)cc2OC(C)C)=N[C@H](c2ccc(Cl)cc2)[C@@H]1c1ccc(Cl)cc1 | 4.84 | 5.07 | 5.11 | 5.03 | 5.47 | 5.04 |  |  |  |  |  |  | 
COc1ccc(C2=N[C@H](c3ccc(Cl)cc3)[C@H](c3ccc(Cl)cc3)N2C(=O)NCC(=O)N2CCCC2)c(OC(C)C)c1 | 5.50 | 5.23 | 5.21 | 5.54 | 4.99 | 5.40 |  |  |  |  |  |  | 
COc1ccc(C2=N[C@H](c3ccc(Cl)cc3)[C@H](c3ccc(Cl)cc3)N2C(=O)NCC(=O)O)c(OC(C)C)c1 | 6.32 | 5.41 | 5.24 | 5.24 | 5.21 | 5.22 |  |  |  |  |  |  | 
COc1ccc(C2=N[C@H](c3ccc(Cl)cc3)[C@H](c3ccc(Cl)cc3)N2C(=O)NCC(=O)N2CCOCC2)c(OC(C)C)c1 | 4.96 | 5.15 | 5.52 | 5.20 | 5.28 | 5.25 | 5.75 µM |  |  |  |  |  | 
COc1ccc(C2=N[C@H](c3ccc(Cl)cc3)[C@H](c3ccc(Cl)cc3)N2C(=O)NCCCC(=O)O)c(OC(C)C)c1 | 6.32 | 5.41 | 5.24 | 5.24 | 5.69 | 5.22 |  |  |  |  |  |  | 
CCOC(=O)CNC(=O)N1C(c2ccc(OC)cc2OC(C)C)=N[C@H](c2ccc(Cl)cc2)[C@@H]1c1ccc(Cl)cc1 | 5.44 | 5.16 | 5.53 | 5.41 | 5.37 | 5.32 |  |  |  |  |  |  | 
COc1ccc(C2=N[C@H](c3ccc(Cl)cc3)[C@H](c3ccc(Cl)cc3)N2C(=O)NCCC(=O)N2CCOCC2)c(OC(C)C)c1 | 5.40 | 5.12 | 5.44 | 5.23 | 5.65 | 5.42 |  |  |  |  |  |  | 
CCOC(=O)[C@H](C)NC(=O)N1C(c2ccc(OC)cc2OC(C)C)=N[C@H](c2ccc(Cl)cc2)[C@@H]1c1ccc(Cl)cc1 |  |  |  |  | 6.08 |  |  | Not Active | Not Active | Not Active | Not Active | Not Active | 
CCN(CC)C(=O)CCNC(=O)N1C(c2ccc(OC)cc2OC(C)C)=N[C@H](c2ccc(Cl)cc2)[C@@H]1c1ccc(Cl)cc1 | 5.39 | 5.14 | 5.34 | 5.50 | 6.19 | 5.19 |  |  |  |  |  |  | 
CCN(CC)C(=O)[C@H](C)NC(=O)N1C(c2ccc(OC)cc2OC(C)C)=N[C@H](c2ccc(Cl)cc2)[C@@H]1c1ccc(Cl)cc1 | 5.48 | 5.27 | 5.37 | 5.34 | 4.90 | 5.70 |  |  |  |  |  |  | 
CCN(CC)C(=O)[C@@H](C)NC(=O)N1C(c2ccc(OC)cc2OC(C)C)=N[C@H](c2ccc(Cl)cc2)[C@@H]1c1ccc(Cl)cc1 | < 4.30 | 4.77 | 5.07 | 5.07 | 5.30 | 5.12 |  |  |  |  |  |  | 
CCN(CC)C(=O)CCCNC(=O)N1C(c2ccc(OC)cc2OC(C)C)=N[C@H](c2ccc(Cl)cc2)[C@@H]1c1ccc(Cl)cc1 | 5.86 | 5.12 | 5.16 | 5.19 | 5.38 | 5.37 |  |  |  |  |  |  | 
CCN(CC)C(=O)CNC(=O)N1C(c2ccc(OC)cc2OC(C)C)=N[C@H](c2ccc(Cl)cc2)[C@@H]1c1ccc(Cl)cc1 | 5.36 | 5.23 | 5.22 | 4.91 | 5.03 | 5.29 |  |  |  |  |  |  | 
COc1ccc(C2=N[C@H](c3ccc(Cl)cc3)[C@H](c3ccc(Cl)cc3)N2C(=O)NCCC(=O)O)c(OC(C)C)c1 |  |  |  |  | 5.97 |  |  | Not Active | Not Active | Not Active | Not Active | Not Active | 

Second part, the compound after the results:

pIC50 (A549) | pIC50 (PC-3) | pIC50 (HL-60) | pIC50 (SW-620) | pIC50 [1] | pIC50 (HCT-116) | IC50 ([1]; read-out: pIC50 (converted)) | IC50 (A549) | IC50 (PC-3) | IC50 (HL-60) | IC50 (SW-620) | IC50 (HCT-116) | Ratio IC50 [2] | SMILES
5.47 | 5.15 | 5.26 | 5.09 | 5.27 | 5.19 |  |  |  |  |  |  |  | COc1ccc(C2=N[C@H](c3ccc(Cl)cc3)[C@H](c3ccc(Cl)cc3)N2C(=O)NCC(=O)N2CCN(C(C)=O)CC2)c(OC(C)C)c1
5.44 | 5.45 | 5.48 | 5.21 | 4.69 | 5.35 |  |  |  |  |  |  |  | COc1ccc(C2=N[C@H](c3ccc(Cl)cc3)[C@H](c3ccc(Cl)cc3)N2C(=O)NCC(=O)N2CCN(C)CC2)c(OC(C)C)c1
 |  |  |  | 5.47 |  |  | Not Active | Not Active | Not Active | Not Active | Not Active |  | COc1ccc(C2=N[C@H](c3ccc(Cl)cc3)[C@H](c3ccc(Cl)cc3)N2C(=O)N[C@@H](C)C(=O)O)c(OC(C)C)c1
5.78 | 5.25 | 5.17 | 5.04 | 5.49 | 5.23 |  |  |  |  |  |  |  | COc1ccc(C2=N[C@H](c3ccc(Cl)cc3)[C@H](c3ccc(Cl)cc3)N2C(=O)N[C@H](C)C(=O)O)c(OC(C)C)c1
5.23 | 5.17 | 5.53 | 5.22 | 5.23 | 5.63 |  |  |  |  |  |  |  | COc1ccc(C2=N[C@H](c3ccc(Cl)cc3)[C@H](c3ccc(Cl)cc3)N2C(=O)NCCC(=O)N2CCN(C)CC2)c(OC(C)C)c1
6.51 | 5.66 | 5.42 | 5.26 | 6.23 | 5.43 |  |  |  |  |  |  | 8 | CCOC(=O)[C@@H](C)NC(=O)N1C(c2ccc(OC)cc2OC(C)C)=N[C@H](c2ccc(Cl)cc2)[C@@H]1c1ccc(Cl)cc1
5.53 | 5.17 | 5.50 | 5.56 | 5.22 | 5.43 |  |  |  |  |  |  |  | COc1ccc(C2=N[C@H](c3ccc(Cl)cc3)[C@H](c3ccc(Cl)cc3)N2C(=O)N[C@H](C)C(=O)N2CCN(C)CC2)c(OC(C)C)c1
 |  |  |  | 5.22 |  |  | Not Active | Not Active | Not Active | Not Active | Not Active |  | COc1ccc(C2=N[C@H](c3ccc(Cl)cc3)[C@H](c3ccc(Cl)cc3)N2C(=O)N[C@@H](C)C(=O)N2CCN(C)CC2)c(OC(C)C)c1
4.62 | 4.39 | 4.71 | 4.47 |  | 4.69 |  |  |  |  |  |  |  | COc1ccc(C2=NC(c3ccc(Cl)cc3)C(c3ccc(Cl)cc3)N2C(=O)N2CCN(C(C)=O)CC2)c(OC(C)C)c1 (stereo not given)
